These results are taken from patent publication US20200276168A1, “Sustained Release Pharmaceutical Compositions and Methods of Use” (Qrono, Inc., priority 2015, published 2020).

For the assay, the system named is head and neck squamous cell carcinoma cells. The assay is described as follows: head and neck squamous cell carcinoma xenograft model, tumor volume monitored for 4 weeks. Type of assay: in vivo, mice. Particulars: payload equal to low dose sustained release formulation (210 nanograms), FIG. 2. Here is the method: Athymic mice were injected subcutaneously with head and neck squamous cell carcinoma cells to form tumors. Mice were divided into groups and treated with a sustained release composition according to the present invention, QR206, at a high dose (2.1 micrograms) a low dose (210 nanograms), or with a low dose of unformulated drug (epothilone D, 210 nanograms). Tumor volume was monitored for 4 weeks.

Regarding `C/C1=C/C[C@@H](/C(C)=C/c2csc(C)n2)OC(=O)C[C@H](O)C(C)(C)C(=O)[C@H](C)[C@@H](O)[C@@H](C)CCC1` [EpoD, Epothilone D], the “tumor growth rate of vehicle only control compared with the unformulated drug” value is “higher tumor growth rate”.
